From patent US20220160680A1, “MICROORGANISM MIXTURES, MOLECULES DERIVED THEREFROM, AND METHODS OF USE THEREOF” (B. G. Negev Technologies and Applications Ltd., at …, priority 2018, published 2022)
“Also recorded” adds a separate entry of the source.

Experiments:
Staphylococcus aureus = test: Static biofilm assay (CLSM); assay type: cell-based; conditions: 50 μM
Experimental: (§1) For static biofilm assay, overnight cultures of P. aeruginosa (PA01), Salmonella and Staphylococcus aureus strains were diluted 1:10 in fresh LB medium containing a final concentration of synthesized molecule (203) of 20 or 50 μM, or DMSO (up to 1%) as control. Biofilms were grown under non-shaking conditions at 37° C. in 96-well plate (Thermo Scientific, Rochester, N.Y., USA). […] The stained cells were washed twice with PBS. Biofilm images were taken by CLSM (Plan-Apochromat 20×/0.8 M27, Zeiss LSM880, Germany).
(§2) P. aeruginosa PA01, Salmonella and Staphylococcus aureus strains were incubated for 24 hr at 37° C. The bacterial suspension was diluted 1:10 with fresh LB and incubated for 3 h with the kefir biomass crude extract molecules or with DMSO as a control (refreshment sample). In all cultures, DMSO concentration was up to 1% (v/v). 200 μl of the broth medium mix with yogurt extract or with DMSO as control were placed in each well of a 96-well plate (Thermo Scientific, Rochester, N.Y., USA). 2 μl refreshment samples were added to each suitable well. The plate incubated for 24 hr at 37° C. After the incubation the samples washed three times with PBS. For visualizing of viable cells, the bacteria were stained green and dead cells stained red using the BacLight® Dead/Live Kit (Invitrogen, Eugene, Oreg., USA). The stained cells were washed twice with PBS. […]

amyloid beta (αβ1-42) [1] = molecular target: T1, amyloid beta (αβ1-42) (Homo sapiens, UniProt P05067); test: Transmission electron microscopy of fibrillation; assay type: biochemical; conditions: 24 hr, 37° C.
T1 construct: samples containing 30 μM amyloid beta [4(1-42)] in the absence or presence of tryptophol acetate
Experimental: TEM grids were prepared after 24 hr incubation at 37° C. of samples containing 30 μM 4(1-42) in the absence or presence of tryptophol acetate in different concentrations.

P. aeruginosa (PA01) = test: Static biofilm assay (CLSM); assay type: cell-based, Pseudomonas aeruginosa; conditions: 20 μM
Experimental: as §1, §2

amyloid beta (αβ1-42) [2] = molecular target: T1, amyloid beta (αβ1-42); test: Surface plasmon resonance, anti-amyloid oligomer antibody chip; assay type: binding; conditions: 30 μM αβ1-42, 6-200 μM
Experimental: SPR sensor chip with Oligomer All antibody, an anti-amyloid oligomer conformation-specific antibody was tested with samples containing 30 μM 4(1-42) in the absence or presence of tryptophol acetate in different concentrations.

Salmonella = test: Static biofilm assay (CLSM); assay type: cell-based, Salmonella enteritidis; conditions: 50 μM
Experimental: as §1, §2

[3] = system: P. aeruginosa (PA01), Salmonella and Staphylococcus aureus strains; test: Bacterial cell growth/viability (BacLight Dead/Live); assay type: cell-based
Experimental: as §1, §2

T1 sequence (P05067 672-713 limits assumed): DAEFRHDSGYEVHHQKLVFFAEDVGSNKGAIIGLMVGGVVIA

CC(=O)OCCc1c[nH]c2ccccc12 [Tryptophol acetate]
Biofilm formation, Staphylococcus aureus (Staphylococcus aureus): significant influence on biofilm formation | Fibrillation formation (TEM) (amyloid beta (αβ1-42) [1]): significantly inhibited | Biofilm formation, P. aeruginosa (P. aeruginosa (PA01)): did not seem to affect biofilm formation; also recorded: No influence | Inhibition of amyloid beta (SPR) (amyloid beta (αβ1-42) [2]): dose dependent manner | Biofilm formation, Salmonella (Salmonella): significant influence on biofilm formation | Bacterial cell growth / viability [3]: did not impact cell growth
